From patent US9604989B2, “Imidazopyridazines as Akt kinase inhibitors” (Bayer Intellectual Property GmbH, priority 2011, dated 2017)

Tests used:
[1] = biological target: His-tagged human recombinant kinase full-length Akt1 (Homo sapiens (Human), UniProt P31749); assay: Akt1 kinase assay (Akt1 TR-FRET assay); type: biochemical; settings: 10 μM ATP, 60 min at 22° C., read-out: Akt1 median IC50
[2] = biological target: His-tagged human recombinant kinase full-length Akt2 (Homo sapiens (Human), UniProt P31751); assay: Akt2 kinase assay (Akt2 TR-FRET assay); type: biochemical; settings: 10 μM ATP, 60 min at 22° C., read-out: Akt2 median IC50
phospho-AKT at S473 = assay: Cellular p-AKT1/2/3-S473 assay in KPL-4 cells; type: cell-based; settings: Homo sapiens, KPL4; KPL-4 breast tumour cell line, compound treatment 2 hours; read-out: pAKT-S473 median IC50
Method: (§1) The molecular mechanism of action was investigated in a set of experiments to assess the inhibition of the PI3K-AKT-mTOR pathway in responsive cell lines such as KPL-4 breast tumour cell line (PIK3CA^H1047R, HER2^O/E and hormone independent). The phospho-substrates of PI3K-AKT-mTOR axis were used as the read-outs to reflect pathway inhibition. Cells were seeded at 60-80% confluency per well in 96-well cell culture plates. After overnight incubation at 37° C. 5% CO2, cells were treated with compounds and vehicle at 37° C. for 2 hours. […] All measurements where at least done in duplicates and confirmed by independent repetition.
Alternatively pAKT-S473 was measured using the “Akt Duplex” of the MULTI-SPOT® Assay System (Fa. Meso Scale Discovery, Cat#N41100B-1) following manufacturers instructions. Each assay used 20 μg of protein extract and measured total AKT and p-AKT content simultaneously in one well. All measurements where at least done in duplicates and confirmed by independent repetition. Values for P-AKT are expressed as percentage of P-AKT level compared to total-AKT content of the extracts.

[3] = test system: KPL-4 breast cancer cell line; assay: Tumor cell proliferation assay (CellTiter-Glo), KPL-4; type: cell-based; settings: Homo sapiens, KPL4, 72 h drug exposure, read-out: KLP-4 median IC50
[4] = test system: MCF-7 breast tumour cell line; assay: Tumor cell proliferation assay (CellTiter-Glo), MCF-7; type: cell-based; settings: Homo sapiens, MCF7, 72 h drug exposure, read-out: MCF-7 median IC50
Method: Biological Assay 4.0: Tumor Cell Proliferation Assays
Compounds were tested in a cell-based assay that measures the capacity of the compounds to inhibit tumour cell proliferation following a 72 h drug exposure. Cell viability is determined using CellTiter-Glow® (CTG, Promega, cat#G7571/2/3). The CellTiter-Glo® Luminescent Cell Viability Assay is a homogeneous method to determine the number of viable cells in culture.
Detection is based on using the luciferase reaction to measure the amount of ATP from viable cells. The amount of ATP in cells correlates with cell viability. Within minutes after a loss of membrane integrity, cells lose the ability to synthesize ATP, and endogenous ATPases destroy any remaining ATP; thus the levels of ATP fall precipitously.
For each cell line assayed, cells were plated onto a separate plate for determination of fluorescence at t=0 hour and t=72 hour time points. Following overnight incubation at 37° C., chemiluminescence values for the t=0 samples were determined after adding 10 μl medium and 100 μl CTG solution according to manufacture protocol. Plates for the t=72 hour time points were treated with compounds diluted into growth medium at ten times final concentration added in 10 μL to the cell culture plate. Cells were then incubated for 72 hours at 37° C. Chemiluminescence values for the t=72 hour samples were determined. […] Experiments were controlled using a reference compound as standard.

p-4E-BP1 at T70 = assay: Cellular p-4E-BP1-T70 assay in KPL-4 cells; type: cell-based; settings: Homo sapiens, KPL4; KPL-4 breast tumour cell line, compound treatment 2 hours; read-out: P4EBP1-T70 median IC50
Method: as §1

Sequence of His-tagged human recombinant kinase full-length Akt1 (P31749 whole entry): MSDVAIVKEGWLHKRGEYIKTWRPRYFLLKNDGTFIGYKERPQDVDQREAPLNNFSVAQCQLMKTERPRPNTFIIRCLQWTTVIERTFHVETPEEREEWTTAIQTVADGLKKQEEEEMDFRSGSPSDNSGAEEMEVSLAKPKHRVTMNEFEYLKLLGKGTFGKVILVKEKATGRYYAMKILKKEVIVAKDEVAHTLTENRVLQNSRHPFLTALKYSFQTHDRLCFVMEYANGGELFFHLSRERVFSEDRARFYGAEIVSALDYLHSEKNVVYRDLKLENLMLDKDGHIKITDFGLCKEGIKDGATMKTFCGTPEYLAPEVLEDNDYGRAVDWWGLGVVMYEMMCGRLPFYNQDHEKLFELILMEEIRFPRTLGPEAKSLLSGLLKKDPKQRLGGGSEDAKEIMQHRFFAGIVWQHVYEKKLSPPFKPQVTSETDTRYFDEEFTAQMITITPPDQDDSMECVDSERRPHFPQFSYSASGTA
Sequence of His-tagged human recombinant kinase full-length Akt2 (P31751 whole entry): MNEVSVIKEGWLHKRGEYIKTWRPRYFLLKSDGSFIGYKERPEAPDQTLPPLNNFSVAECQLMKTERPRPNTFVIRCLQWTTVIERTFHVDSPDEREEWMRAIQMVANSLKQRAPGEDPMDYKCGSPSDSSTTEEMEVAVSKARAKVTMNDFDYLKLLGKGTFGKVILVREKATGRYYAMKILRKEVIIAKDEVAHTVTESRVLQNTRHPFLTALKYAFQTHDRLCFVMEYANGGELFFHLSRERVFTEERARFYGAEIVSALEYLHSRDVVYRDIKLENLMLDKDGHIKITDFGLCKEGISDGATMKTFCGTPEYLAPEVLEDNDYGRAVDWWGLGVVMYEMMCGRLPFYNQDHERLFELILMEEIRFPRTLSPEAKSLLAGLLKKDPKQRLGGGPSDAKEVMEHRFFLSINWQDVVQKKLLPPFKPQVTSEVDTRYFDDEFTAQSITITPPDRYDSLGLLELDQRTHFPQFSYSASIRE

Row | Structure (SMILES) | IC50 [1] [µM] | IC50 [2] [µM] | IC50 (phospho-AKT at S473) [µM] | IC50 [3] [µM] | IC50 [4] [µM] | IC50 (p-4E-BP1 at T70) [µM]
1 | Cc1ccc2nc(-c3ccc(C4(N)CCC4)cc3)c(-c3ccccc3)n2n1 [Example 1, 1-[4-(6-Methyl-3-phenylimidazo[1,2-b]pyridazin-2-yl)phenyl]cyclobutanamine] | 0.17 | 0.38 | 0.16 | 1.8 | 0.6 | –
2 | CCc1ccc2nc(-c3ccc(C4(N)CCC4)cc3)c(-c3ccccc3)n2n1 [Example 2, 1-[4-(6-Ethyl-3-phenylimidazo[1,2-b]pyridazin-2-yl)phenyl]cyclobutanamine] | 0.065 | 0.097 | 0.31 | 1.7 | 1.7 | 2.1
3 | CCOC(=O)c1ccc2nc(-c3ccc(C4(N)CCC4)cc3)c(-c3ccccc3)n2n1 [Example 4, Ethyl 2-[4-(1-aminocyclobutyl)phenyl]-3-phenylimidazo[1,2-b]pyridazine-6-carboxylate] | 0.085 | 0.19 | 0.61 | 2.4 | 1.8 | 2.4
4 | COc1ccc2nc(-c3ccc(C4(N)CCC4)cc3)c(-c3ccccc3)n2n1 [Example 6, 1-[4-(6-Methyloxy-3-phenylimidazo[1,2-b]pyridazin-2-yl)phenyl]cyclobutanamine] | 0.0042 | 0.08 | 0.21 | 1.1 | 1.2 | 1.3
5 | COc1cc(Br)nn2c(-c3ccccc3)c(-c3ccc(C4(N)CCC4)cc3)nc12 [Example 7, 1-[4-(6-Bromo-8-methyloxy-3-phenylimidazo[1,2-b]pyridazin-2-yl)phenyl]-cyclobutanamine] | 0.0069 | 0.0097 | 0.027 | 0.25 | 0.41 | 1.3
6 | NC1(c2ccc(-c3nc4ccc(C(=O)O)nn4c3-c3ccccc3)cc2)CCC1 [Example 8, 2-[4-(1-Aminocyclobutyl)phenyl]-3-phenylimidazo[1,2-b]pyridazine-6-carboxylic acid] | 0.45 | 0.4 | > 10 | > 10 | > 10 | > 10
7 | NC1(c2ccc(-c3nc4ccc(Cl)nn4c3-c3ccccc3)cc2)CCC1 [Example 17, 1-[4-(6-Chloro-3-phenylimidazo[1,2-b]pyridazin-2-yl)phenyl]cyclobutanamine] | 0.043 | 0.092 | 0.012 | – | – | 0.43
8 | CNC(=O)c1cc(-c2ncc[nH]2)c2nc(-c3ccc(C4(N)CCC4)cc3)c(-c3ccccc3)n2n1 [Example 62, 2-[4-(1-Aminocyclobutyl)phenyl]-8-(1H-imidazol-2-yl)-N-methyl-3-phenylimidazo[1,2-b]pyridazine-6-carboxamide] | 0.016 | 0.062 | 0.0004 | – | – | 0.035
9 | NC1(c2ccc(-c3nc4c(-c5cc[nH]n5)cc(C(=O)O)nn4c3-c3ccccc3)cc2)CCC1 [Example 67, 2-[4-(1-Aminocyclobutyl)phenyl]-3-phenyl-8-(1H-pyrazol-3-yl)imidazo[1,2-b]-pyridazine-6-carboxylic acid] | 0.058 | 0.096 | > 10 | – | – | > 10
10 | NC1(c2ccc(-c3nc4ccc(C(=O)NCCO)nn4c3-c3ccccc3)cc2)CCC1 [Example 70, 2-[4-(1-Aminocyclobutyl)phenyl]-N-(2-hydroxyethyl)-3-phenylimidazo[1,2-b]pyridazine-6-carboxamide] | – | 0.11 | 0.0057 | 2.6 | 0.94 | 2.4
11 | CCOc1ccc2nc(-c3ccc(C4(N)CCC4)cc3)c(-c3ccccc3)n2n1 [Example 78, 1-[4-(6-Ethoxy-3-phenylimidazo[1,2-b]pyridazin-2-yl)phenyl]cyclobutanamine] | 0.032 | 0.23 | 0.092 | – | – | 0.58
